Article PMC4995692, “An assay to measure poly(ADP ribose) glycohydrolase (PARG) activity in cells” (F1000Research, 2016)
“Also recorded” adds a separate entry of the source. Blank lines part the entries; values can stand above or below the compound they belong to.

Legend:
[1] = tested on: nuclear PAR chains in Hela cells; type: cell-based, human; conditions: 250 µg/mL MMS
Protocol: Exponentially growing HeLa cells were trypsinized and resuspended in complete media before being filtered through a […] cell strainer (#352340, BD Falcon, Oxford, UK). Cells were then counted using a Muse cell counter (Merck Millipore, Hertfordshire, UK) and seeded in 30 µL of media at 4×10 ^4 cells/mL in Greiner 384-well plates (#781091, Greiner Bio-One, Stonehouse, UK) and placed in a cell culture incubator. After 16–24 h the plates were centrifuged briefly at 164× g and the cells dosed with compound(s) or vehicle (DMSO) control using an Echo 550 (Labcyte, Dublin, Ireland). […] After 1 h the plate was re-spun and cells co-dosed with different concentrations of MMS (50–250 µg/mL final concentration) or DMSO using the Echo 550 and incubated for a given time (30 min–2 h) at 37°C in a cell culture incubator. […] Following three washes with PBS, the plates were sealed and images captured using a 10× objective on a CellInsight (ThermoFisher) and analysed using Cellomics Scan compartmental analysis software (ThermoFisher). A threshold determined by assessing the signal in DMSO treated cells was applied to the pixel intensity and a Box Detection application was used to detect objects smaller than five pixels in radius within the nucleus. […]

[2] = tested on: PAR chains in PARG KD cells; assay: PAR chain detection after MMS, preliminary western blot; type: cell-based, human; conditions: 250 µg/mL MMS
[3] = tested on: Murine embryonic fibroblasts (MEFs); assay: SRB assay, MMS sensitivity of MEFs; type: cell-based; conditions: Mus musculus, Fibroblast, 72 h
Protocol: (§1) Cells in 96-well plates were fixed with the addition of 100 µL ice cold 10% trichloroacetic acid to the media. After 1 h at 4°C, the cells were washed twice with PBS and left to dry. Once dry, 100 µL 0.2% sulforhodamine B (SRB) was add to each well and incubated for 15 min at room temperature. The cells were washed three times with 200 µL 1% acetic acid and then dried. To solubilise the remaining SRB, 200 µL 10 mM Tris pH10.5 was added to each well and the plate incubated with agitation for 10 min. Absorbance at 520 nm was measured on a plate reader (Biotek, Swindon, UK).

SW620 cells = assay: SW620 proliferation after MMS (Hoechst stain); type: cell-based, human; conditions: MMS 72 h
H1048 cells = assay: SRB assay, MMS sensitivity of H1048; type: cell-based; conditions: Homo sapiens, NCI-H1048, 72 h
Protocol: as §1

[4] = tested on: PARG KD Hela cells (PARG Silencix); assay: Growth inhibition by MMS in PARG KD Hela cells; type: cell-based; conditions: Homo sapiens, 120 h, 5 days
control Hela cells = assay: Growth inhibition by MMS in control Hela cells; type: cell-based; conditions: Homo sapiens, 120 h, 5 days
PARG = PARG (Homo sapiens, UniProt Q86W56); assay: PAR chain assay in SW620 cells with temozolomide; type: cell-based
PARG, sequence (Q86W56 whole entry): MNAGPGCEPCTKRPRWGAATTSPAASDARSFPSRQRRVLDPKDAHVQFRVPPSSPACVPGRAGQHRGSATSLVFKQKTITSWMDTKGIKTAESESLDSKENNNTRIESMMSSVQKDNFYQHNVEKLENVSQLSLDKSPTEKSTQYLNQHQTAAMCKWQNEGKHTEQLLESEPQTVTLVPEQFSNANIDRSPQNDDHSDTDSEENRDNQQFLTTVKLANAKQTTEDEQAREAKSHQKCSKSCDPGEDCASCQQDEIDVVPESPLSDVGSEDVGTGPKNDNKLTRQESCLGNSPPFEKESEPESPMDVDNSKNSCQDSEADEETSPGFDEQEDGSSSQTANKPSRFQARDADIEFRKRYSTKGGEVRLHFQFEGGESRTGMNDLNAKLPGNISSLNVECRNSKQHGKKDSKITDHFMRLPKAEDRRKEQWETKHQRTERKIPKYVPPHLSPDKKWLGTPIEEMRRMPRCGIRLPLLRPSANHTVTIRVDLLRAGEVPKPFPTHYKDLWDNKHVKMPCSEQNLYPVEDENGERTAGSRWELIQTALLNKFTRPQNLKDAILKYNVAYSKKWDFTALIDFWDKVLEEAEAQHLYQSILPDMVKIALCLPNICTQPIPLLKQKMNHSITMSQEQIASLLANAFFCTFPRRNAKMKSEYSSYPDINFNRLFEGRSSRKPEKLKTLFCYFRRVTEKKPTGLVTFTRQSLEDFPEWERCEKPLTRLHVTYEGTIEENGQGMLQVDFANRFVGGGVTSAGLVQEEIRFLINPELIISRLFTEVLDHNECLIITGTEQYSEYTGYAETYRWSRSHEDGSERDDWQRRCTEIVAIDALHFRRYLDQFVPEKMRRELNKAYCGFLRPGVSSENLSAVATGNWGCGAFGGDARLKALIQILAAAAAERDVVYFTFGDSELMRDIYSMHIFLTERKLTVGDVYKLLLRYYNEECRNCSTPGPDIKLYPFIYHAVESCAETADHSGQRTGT

SMILES: COS(C)(=O)=O [MMS, Methylmethanesulfonate]
- time of maximum nuclear PAR signal [1]: 25 min
- time of peak of PAR chains after MMS addition [2]: approximately 20 min
- IC50 [3]: 14.5 µM
- proliferation (SW620 cells): dose-dependent decrease
- IC50 (H1048 cells): 9 µM
- IC50 [4]: 6.2 µg/mL
- IC50 (control Hela cells): 16.5 µg/mL

- PAR signal (PARG; one hour after TMZ alone): no PAR signal detectable
SMILES: Cn1nnc2c(C(N)=O)ncn2c1=O [TMZ, Temozolomide]

- PAR signal (PARG; pre-treated at 300 nM, 1 h temozolomide 1.5-200 µg/mL): no effect
SMILES: O=C(c1cc(Cc2n[nH]c(=O)c3ccccc23)ccc1F)N1CCN(C(=O)C2CC2)CC1 [olaparib]
- PAR signal (PARG; increasing concentrations of compound, 150 µg/mL temozolomide for 1 h): did not lead to any increase; also recorded: no effect
